Experimental data taken from patent US20200216499A1, “ANGIOTENSIN-(1-7) ANALOGS AND METHODS RELATING THERETO” (WAKE FOREST UNIVERSITY HEALTH SCIENCES, priority 2015, published 2020).
“Also recorded” adds a separate entry of the source.

Experiments:
human ACE = human ACE (Homo sapiens, UniProt P12821); assay: Degradation by ACE (HPLC of reaction products); format: in vitro ADME; conditions: 100 μM peptide, 1.0 μg human ACE, reaction buffer pH 7.4, 2 hours at 37° C., HPLC UV 220 nm
Description: (§1) FIGS. 2A-4D show graphs depicting enzymatic digestion by angiotensin converting enzyme (ACE) of Ang-(1-7), Ang-(1-7)-ACCA^5, Ang-(1-7)-ACCA^6, and Ang-(1-7)-ACCA^3, respectively, in accordance with one aspect. The peptides (100 μM) were incubated with human ACE (1.0 μg) in reaction buffer for 2 hours at 37° C. in a final volume of 100 μL, and the reaction products assessed by HPLC (UV 220 nm).
Analogs with ACCA at position 5 (Ang-(1-7)-ACCA^5), position 6 (Ang-(1-7)-ACCA^6), and position 3 (Ang-(1-7)-ACCA^3) were assessed to determine whether the analogs were degraded by ACE. Ang-(1-7) served as the control. Specifically, 100 μM of one of the three analogs or Ang-(1-7) was incubated with 1.0 μg of human ACE in reaction buffer (25 mM Hepes, 125 mM NaCl, 10 μM ZnCl2, pH 7.4) for 2 hours at 37° C. in a final volume of 100 μL. The resultant reaction products were separated by high pressure liquid chromatography (HPLC) on a Phenomenex Aeris Peptide C18 column using a Shimadzu Prominence system and detected by UV analysis at 220 nm.

Human DPP III = target: T1, Human DPP III (Homo sapiens, UniProt Q9NY33); assay: Degradation by DPP III (HPLC of reaction products); format: in vitro ADME; conditions: 100 μM peptide, 1.0 μg human DPP III, 2 hours at 37° C., HPLC UV 220 nm
T1 sequence (Q9NY33 1-737): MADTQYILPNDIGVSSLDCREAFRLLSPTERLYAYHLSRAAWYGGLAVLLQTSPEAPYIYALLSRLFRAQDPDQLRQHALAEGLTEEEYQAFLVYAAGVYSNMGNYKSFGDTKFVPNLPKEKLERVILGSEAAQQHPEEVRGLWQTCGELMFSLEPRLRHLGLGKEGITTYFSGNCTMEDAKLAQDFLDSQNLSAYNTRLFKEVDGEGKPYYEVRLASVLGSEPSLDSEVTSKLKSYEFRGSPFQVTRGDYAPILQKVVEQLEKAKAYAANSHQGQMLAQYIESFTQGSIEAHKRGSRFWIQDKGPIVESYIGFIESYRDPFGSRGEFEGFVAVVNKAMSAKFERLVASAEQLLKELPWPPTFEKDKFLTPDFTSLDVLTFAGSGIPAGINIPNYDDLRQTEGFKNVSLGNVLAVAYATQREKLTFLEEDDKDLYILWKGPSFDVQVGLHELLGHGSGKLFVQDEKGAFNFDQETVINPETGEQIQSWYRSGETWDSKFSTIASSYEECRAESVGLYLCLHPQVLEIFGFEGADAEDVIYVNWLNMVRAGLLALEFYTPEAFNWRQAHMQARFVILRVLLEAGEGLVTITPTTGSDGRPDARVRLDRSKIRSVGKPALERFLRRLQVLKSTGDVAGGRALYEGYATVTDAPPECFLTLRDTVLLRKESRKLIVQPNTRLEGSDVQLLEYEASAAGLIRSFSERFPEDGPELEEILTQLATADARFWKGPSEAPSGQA
Description: as §1, with “3A-5D” for “2A-4D”, “dipeptidyl peptidase III (DPE III)” for “angiotensin converting enzyme (ACE)”, “DPE III” for “ACE”
The Ang-(1-7) and the analogs Ang-(1-7)-ACCA^5, Ang-(1-7)-ACCA^6, and Ang-(1-7)-ACCA^3 were assessed to determine whether they were resistant to metabolism by the enzyme dipeptidyl peptidase III (DPP III). DPP III metabolizes Ang-(1-7) at different sites as compared to ACE (Chappell et al., Front Endocrinol (Lausanne) 4:201 (pp. 1-13) (2014)). The incubation conditions and detection methods for the metabolism by DPP III were identical to that used to assess degradation by ACE as described in Example 3.

[1] = cited from earlier work

Sequence of human ACE (P12821 30-1306): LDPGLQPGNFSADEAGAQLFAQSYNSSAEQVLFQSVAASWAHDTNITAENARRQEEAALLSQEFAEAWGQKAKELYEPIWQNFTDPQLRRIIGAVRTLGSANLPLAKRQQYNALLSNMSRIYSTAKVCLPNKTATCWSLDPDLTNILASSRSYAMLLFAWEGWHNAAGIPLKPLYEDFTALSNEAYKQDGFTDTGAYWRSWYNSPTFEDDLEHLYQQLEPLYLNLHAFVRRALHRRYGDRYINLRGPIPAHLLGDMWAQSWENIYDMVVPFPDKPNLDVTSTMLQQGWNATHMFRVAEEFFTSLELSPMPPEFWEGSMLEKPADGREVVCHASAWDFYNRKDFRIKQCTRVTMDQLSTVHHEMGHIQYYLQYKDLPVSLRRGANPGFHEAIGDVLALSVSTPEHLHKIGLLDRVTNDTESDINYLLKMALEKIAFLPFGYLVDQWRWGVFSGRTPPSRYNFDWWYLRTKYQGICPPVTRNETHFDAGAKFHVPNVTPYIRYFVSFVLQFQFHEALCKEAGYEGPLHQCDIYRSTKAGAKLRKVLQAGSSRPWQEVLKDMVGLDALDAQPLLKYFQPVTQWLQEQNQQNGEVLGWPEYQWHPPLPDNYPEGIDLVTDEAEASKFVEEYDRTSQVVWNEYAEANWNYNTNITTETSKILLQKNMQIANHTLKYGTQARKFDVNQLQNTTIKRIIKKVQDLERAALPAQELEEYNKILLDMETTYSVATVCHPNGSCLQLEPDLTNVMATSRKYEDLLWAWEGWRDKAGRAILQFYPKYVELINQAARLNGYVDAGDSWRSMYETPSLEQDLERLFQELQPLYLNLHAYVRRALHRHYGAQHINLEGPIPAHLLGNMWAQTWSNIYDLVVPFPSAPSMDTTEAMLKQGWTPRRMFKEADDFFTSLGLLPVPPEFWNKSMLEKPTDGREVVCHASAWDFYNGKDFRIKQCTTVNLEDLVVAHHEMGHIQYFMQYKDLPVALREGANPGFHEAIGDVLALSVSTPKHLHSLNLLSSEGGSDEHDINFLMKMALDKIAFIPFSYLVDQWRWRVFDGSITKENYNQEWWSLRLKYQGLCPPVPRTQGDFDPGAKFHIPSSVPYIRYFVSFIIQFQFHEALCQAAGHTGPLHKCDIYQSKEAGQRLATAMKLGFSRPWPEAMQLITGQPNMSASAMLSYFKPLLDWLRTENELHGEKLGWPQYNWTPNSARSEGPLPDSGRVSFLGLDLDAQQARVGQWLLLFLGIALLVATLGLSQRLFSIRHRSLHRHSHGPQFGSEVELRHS

For `CC[C@H](C)[C@H](NC(=O)[C@H](Cc1ccc(O)cc1)NC(=O)[C@@H](NC(=O)[C@H](CCCNC(=N)N)NC(=O)[C@@H](N)CC(=O)O)C(C)C)C(=O)N[C@@H](Cc1c[nH]cn1)C(=O)N1CCC[C@H]1C(=O)O` [Ang-(1-7), Asp-Arg-Val-Tyr-Ile-His-Pro], the “degradation / resistance to metabolism by ACE” value (human ACE) is listed as “degraded to Ang-(1-5) and the dipeptide His-Pro; also recorded: readily degraded”, the “degradation / resistance to metabolism by DPP III” value (Human DPP III) is listed as “sequentially degraded; also recorded: readily degraded” and the half-life in plasma [1] is listed as 30 min.
